Patent US8975417B2, “Pyrazolopyrrolidine derivatives and their use in the treatment of disease” (Novartis AG, priority 2013, dated 2015)
pIC50: −log10 of the molar value.

Assays:
K-562 cells = assay: Cell growth inhibition assay (CellTiter-Glo), K-562; format: cell-based, human; conditions: Homo sapiens, K562, read-out: K-562 TGI
Outline: (§1)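 CTG luminescence (cellular ATP) after compound treatment; values background- and day 0-corrected, vehicle (0.1% DMSO) = 100%, medium only = −100%. Dose range: 3-fold dilutions from 10 μM. IC50/TGI by 4-parameter fit.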

His-Brd2(60-472) = His-Brd2(60-472) (Homo sapiens (Human), UniProt P25440); assay: TR-FRET in-vitro binding assay for BRD2; conditions: biochemical
Outline: (§2)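 Assay buffer HEPES pH 7.5/NaCl/Tween20/BSA; protein solution 45 nM, peptide solution 60 nM acetyl-H4 (AcK5,8,12,16). Incubated 30 °C for 35 min; Eu-anti-His6 and SA-APC detection, TR-FRET read.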

His-Brd3(20-477) = His-Brd3(20-477) (Homo sapiens (Human), UniProt Q15059); assay: TR-FRET in-vitro binding assay for BRD3; conditions: biochemical
Outline: as §2

THP-1 cells = assay: Cell growth inhibition assay (CellTiter-Glo), THP-1; format: cell-based; conditions: Homo sapiens, read-out: THP-1 TGI
Outline: as §1

His-Brd3(20-477), sequence (Q15059 20-477): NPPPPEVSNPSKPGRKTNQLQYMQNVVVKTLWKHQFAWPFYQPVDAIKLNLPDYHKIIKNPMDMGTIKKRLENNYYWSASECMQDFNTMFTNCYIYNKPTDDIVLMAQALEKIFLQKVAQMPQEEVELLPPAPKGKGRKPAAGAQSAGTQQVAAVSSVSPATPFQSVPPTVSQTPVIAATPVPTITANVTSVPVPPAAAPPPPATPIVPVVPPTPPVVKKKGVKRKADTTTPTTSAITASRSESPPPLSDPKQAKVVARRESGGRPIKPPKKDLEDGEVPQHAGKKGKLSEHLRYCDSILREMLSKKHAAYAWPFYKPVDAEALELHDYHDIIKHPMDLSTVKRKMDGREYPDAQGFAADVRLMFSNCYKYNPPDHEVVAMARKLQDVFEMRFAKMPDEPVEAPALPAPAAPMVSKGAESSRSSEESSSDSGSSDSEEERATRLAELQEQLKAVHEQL
His-Brd2(60-472), sequence (P25440 60-472): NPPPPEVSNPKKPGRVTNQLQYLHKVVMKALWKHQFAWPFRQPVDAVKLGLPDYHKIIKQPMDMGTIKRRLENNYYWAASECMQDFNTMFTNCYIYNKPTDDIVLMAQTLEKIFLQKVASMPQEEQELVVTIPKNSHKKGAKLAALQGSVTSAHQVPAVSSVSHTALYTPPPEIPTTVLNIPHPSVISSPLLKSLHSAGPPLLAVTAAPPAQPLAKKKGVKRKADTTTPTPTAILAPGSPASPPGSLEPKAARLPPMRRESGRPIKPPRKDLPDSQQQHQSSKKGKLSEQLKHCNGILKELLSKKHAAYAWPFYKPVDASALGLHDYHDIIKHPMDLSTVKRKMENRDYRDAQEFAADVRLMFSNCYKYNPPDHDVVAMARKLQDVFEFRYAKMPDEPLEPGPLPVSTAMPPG

| pIC50 (His-Brd2(60-472)) | pIC50 (His-Brd3(20-477)) | Structure (SMILES) | IC (total growth inhibition) (K-562 cells) | IC (total growth inhibition) (THP-1 cells) |
| --- | --- | --- | --- | --- |
| 7.43 | 7.21 | CCc1nn(C2CC2)c2c1C(c1ccc(Cl)cc1)N(c1cc(OC)c3nnc(C)n3c1)C2=O (stereo not drawn) [Example 84, 4-(4-chlorophenyl)-1-cyclopropyl-3-ethyl-5-(8-methoxy-3-methyl-[1,2,4]triazolo[4,3-a]pyridin-6-yl)-4,5-dihydropyrrolo[3,4-c]pyrazol-6(1H)-one] | > 10 µM | 0.163 µM |
| 7.14 | 7.23 | CCc1nn(CCOC)c2c1C(c1ccc(Cl)cc1)N(c1cc(C)c3nnc(C)n3c1)C2=O (stereo not drawn) [Example 87, 4-(4-chlorophenyl)-5-(3,8-dimethyl-[1,2,4]triazolo[4,3-a]pyridin-6-yl)-3-ethyl-1-(2-methoxyethyl)-4,5-dihydropyrrolo[3,4-c]pyrazol-6(1H)-one] | > 10 µM | 0.0598 µM |
| 7.22 | 7.24 | CCc1nn(-c2ccnn2C)c2c1C(c1ccc(Cl)cc1)N(c1cc(C)c(=O)n(C)c1)C2=O (stereo not drawn) [Example 89, 4-(4-chlorophenyl)-5-(1,5-dimethyl-6-oxo-1,6-dihydropyridin-3-yl)-3-ethyl-1-(1-methyl-1H-pyrazol-5-yl)-4,5-dihydropyrrolo[3,4-c]pyrazol-6(1H)-one] | > 10 µM | 0.119 µM |
| 7.35 | 7.51 | Cc1cc(N2C(=O)c3nn(C4CC4)c(C)c3C2c2ccc(Cl)cc2)cn2c(C)nnc12 (stereo not drawn) [Example 93, 4-(4-chlorophenyl)-2-cyclopropyl-5-(3,8-dimethyl-[1,2,4]triazolo[4,3-a]pyridin-6-yl)-3-methyl-4,5-dihydropyrrolo[3,4-c]pyrazol-6(2H)-one] | > 10 µM | 0.0518 µM |
| 7.60 | 7.55 | Cc1nn(C2CCC2)c2c1C(c1ccc(Cl)cc1)N(c1cc(C)c(=O)n(C)c1)C2=O (stereo not drawn) [Example 94, 4-(4-chlorophenyl)-1-cyclobutyl-5-(1,5-dimethyl-6-oxo-1,6-dihydropyridin-3-yl)-3-methyl-4,5-dihydropyrrolo[3,4-c]pyrazol-6(1H)-one] | > 10 µM | 0.0765 µM |
| 7.20 | 7.14 | Cc1nn(C2CC2)c2c1C(c1ccc(OC(F)(F)F)cc1)N(c1cc(C)c(=O)n(C)c1)C2=O (stereo not drawn) [Example 95, 1-cyclopropyl-5-(1,5-dimethyl-6-oxo-1,6-dihydropyridin-3-yl)-3-methyl-4-(4-(trifluoromethoxy)phenyl)-4,5-dihydropyrrolo[3,4-c]pyrazol-6(1H)-one] | > 10 µM | 0.411 µM |
| 6.18 | 6.10 | Cc1nn(C2CC2)c2c1C(c1cccc(C(F)(F)F)c1)N(c1cc(C)c(=O)n(C)c1)C2=O (stereo not drawn) [Example 96, 1-cyclopropyl-5-(1,5-dimethyl-6-oxo-1,6-dihydropyridin-3-yl)-3-methyl-4-(3-(trifluoromethyl)phenyl)-4,5-dihydropyrrolo[3,4-c]pyrazol-6(1H)-one] | > 10 µM | 2.55 µM |
| 7.06 | 6.92 | Cc1nn(C2CC2)c2c1C(c1ccc(C(F)(F)F)cc1)N(c1cc(C)c(=O)n(C)c1)C2=O (stereo not drawn) [Example 97, 1-cyclopropyl-5-(1,5-dimethyl-6-oxo-1,6-dihydropyridin-3-yl)-3-methyl-4-(4-(trifluoromethyl)phenyl)-4,5-dihydropyrrolo[3,4-c]pyrazol-6(1H)-one] | > 10 µM | 0.274 µM |
| 5.22 | 5.12 | COc1ncc(-n2nc(C)c3c2C(=O)N(c2cc(C)c(=O)n(C)c2)[C@H]3c2ccc(Cl)cc2)c(OC)n1 [Example 99, (S)-4-(4-chlorophenyl)-1-(2,4-dimethoxypyrimidin-5-yl)-5-(1,5-dimethyl-6-oxo-1,6-dihydropyridin-3-yl)-3-methyl-4,5-dihydropyrrolo[3,4-c]pyrazol-6(1H)-one] | > 10 µM | > 10 µM |
| 7.55 | 7.57 | COc1ncc(-n2nc(C)c3c2C(=O)N(c2cc(C)c(=O)n(C)c2)[C@@H]3c2ccc(Cl)cc2)c(OC)n1 [Example 100, (R)-4-(4-chlorophenyl)-1-(2,4-dimethoxypyrimidin-5-yl)-5-(1,5-dimethyl-6-oxo-1,6-dihydropyridin-3-yl)-3-methyl-4,5-dihydropyrrolo[3,4-c]pyrazol-6(1H)-one] | > 10 µM | 0.153 µM |
| 7.37 | 7.44 | COc1ncccc1-n1nc(C)c2c1C(=O)N(c1cc(C)c3nnc(C)n3c1)C2c1ccc(Cl)cc1 (stereo not drawn) [Example 101, 4-(4-chlorophenyl)-5-(3,8-dimethyl-[1,2,4]triazolo[4,3-a]pyridin-6-yl)-1-(2-methoxypyridin-3-yl)-3-methyl-4,5-dihydropyrrolo[3,4-c]pyrazol-6(1H)-one] | > 10 µM | 0.102 µM |
| 7.14 | 7.26 | Cc1nn(C2CC2)c2c1C(c1ccc(Cl)cc1)N(c1ccc3nnn(C)c3n1)C2=O (stereo not drawn) [Example 102, 4-(4-chlorophenyl)-1-cyclopropyl-3-methyl-5-(3-methyl-3H-[1,2,3]triazolo[4,5-b]-pyridin-5-yl)-4,5-dihydropyrrolo[3,4-c]pyrazol-6(1H)-one] | > 10 µM | 0.304 µM |
| 5.28 | 5.21 | Cc1nn(C(C)C)c2c1[C@H](c1ccc(Cl)cc1)N(c1cc(C)c(=O)n(C)c1)C2=O [Example 103, (S)-4-(4-chlorophenyl)-5-(1,5-dimethyl-6-oxo-1,6-dihydropyridin-3-yl)-1-isopropyl-3-methyl-4,5-dihydropyrrolo[3,4-c]pyrazol-6(1H)-one] | > 10 µM | > 10 µM |
| 7.85 | 7.82 | Cc1nn(C(C)C)c2c1[C@@H](c1ccc(Cl)cc1)N(c1cc(C)c(=O)n(C)c1)C2=O [Example 104, (R)-4-(4-chlorophenyl)-5-(1,5-dimethyl-6-oxo-1,6-dihydropyridin-3-yl)-1-isopropyl-3-methyl-4,5-dihydropyrrolo[3,4-c]pyrazol-6(1H)-one] | > 10 µM | 0.045 µM |
| 6.89 | 6.82 | CCc1nn(C)c2c1C(c1ccc(Cl)cc1)N(c1cc(OC)c3nnc(C)n3c1)C2=O (stereo not drawn) [Example 105, 4-(4-chlorophenol)-3-ethyl-5-(8-methoxy-3-methyl-[1,2,4]triazolo[4,3-a]pyridin-6-yl)-1-methyl-4,5-dihydropyrrolo[3,4-c]pyrazol-6(1H)-one] | > 10 µM | 0.335 µM |
| 5.54 | 5.36 | CCc1nn(C2CC2)c2c1[C@H](c1ccc(Cl)cc1)N(c1cc(C)c3nnc(C)n3c1)C2=O [Example 106, (S)-4-(4-chlorophenyl)-1-cyclopropyl-5-(3,8-dimethyl-[1,2,4]triazolo[4,3-a]pyridin-6-yl)-3-ethyl-4,5-dihydropyrrolo[3,4-c]pyrazol-6(1H)-one] | > 10 µM | 4.68 µM |
| 7.85 | 7.89 | CCc1nn(C2CC2)c2c1[C@@H](c1ccc(Cl)cc1)N(c1cc(C)c3nnc(C)n3c1)C2=O [Example 107, (R)-4-(4-chlorophenyl)-1-cyclopropyl-5-(3,8-dimethyl-[1,2,4]triazolo[4,3-a]pyridin-6-yl)-3-ethyl-4,5-dihydropyrrolo[3,4-c]pyrazol-6(1H)-one] | > 10 µM | 0.0199 µM |
| 6.68 | 6.55 | CCc1nn(CCOCC(F)(F)F)c2c1C(c1ccc(Cl)cc1)N(c1cc(OC)c3nnc(C)n3c1)C2=O (stereo not drawn) [Example 108, 4-(4-chlorophenyl)-3-ethyl-5-(8-methoxy-3-methyl-[1,2,4]triazolo[4,3-a]pyridin-6-yl)-1-(2-(2,2,2-trifluoroethoxy)ethyl)-4,5-dihydropyrrolo[3,4-c]pyrazol-6(1H)-one] | > 10 µM | 0.832 µM |
| 7.57 | 7.57 | COc1ncccc1-n1nc(C)c2c1C(=O)N(c1cc(C)c3nnn(C)c3n1)C2c1ccc(Cl)cc1 (stereo not drawn) [Example 109, 4-(4-chlorophenyl)-5-(3,7-dimethyl-3H-[1,2,3]triazolo[4,5-b]pyridin-5-yl)-1-(2-methoxypyridin-3-yl)-3-methyl-4,5-dihydropyrrolo[3,4-c]pyrazol-6(1H)-one] | > 10 µM | 0.0904 µM |
| 7.74 | 7.85 | Cc1nn(C2CC2)c2c1C(c1ccc(Cl)cc1)N(c1cc(C)c3nnn(C)c3n1)C2=O (stereo not drawn) [Example 110, 4-(4-chlorophenyl)-1-cyclopropyl-5-(3,7-dimethyl-3H-[1,2,3]triazolo[4,5-b]pyridin-5-yl)-3-methyl-4,5-dihydropyrrolo[3,4-c]pyrazol-6(1H)-one] | > 10 µM | 0.0198 µM |

| Structure (SMILES) | pIC50 (His-Brd2(60-472)) | pIC50 (His-Brd3(20-477)) | IC (total growth inhibition) (K-562 cells) | IC (total growth inhibition) (THP-1 cells) |
| --- | --- | --- | --- | --- |
| Cc1nn(-c2ccnn2C)c2c1C(c1ccc(Cl)cc1)N(c1cc(C)c3nnc(C)n3c1)C2=O (stereo not drawn) [Example 90, 4-(4-chlorophenyl)-5-(3,8-dimethyl-[1,2,4]triazolo[4,3-a]pyridin-6-yl)-3-methyl-1-(1-methyl-1H-pyrazol-5-yl)-4,5-dihydropyrrolo[3,4-c]pyrazol-6(1H)-one] | 7.55 | 7.55 | > 10 µM | 0.115 µM |
